Reference: ChEMBL document CHEMBL4507266, “Data for DCP probe BAY-784” (2021)

Legend:
[1] = biological target: Activated CDC42 kinase 1 (Homo sapiens) (UniProt Q07912); conditions: Compound concentration 1000.0 nM
[2] = biological target: T1, 5-hydroxytryptamine receptor 3A (Homo sapiens) (UniProt P46098); conditions: Compound concentration 10.0 uM
T1 sequence (whole entry): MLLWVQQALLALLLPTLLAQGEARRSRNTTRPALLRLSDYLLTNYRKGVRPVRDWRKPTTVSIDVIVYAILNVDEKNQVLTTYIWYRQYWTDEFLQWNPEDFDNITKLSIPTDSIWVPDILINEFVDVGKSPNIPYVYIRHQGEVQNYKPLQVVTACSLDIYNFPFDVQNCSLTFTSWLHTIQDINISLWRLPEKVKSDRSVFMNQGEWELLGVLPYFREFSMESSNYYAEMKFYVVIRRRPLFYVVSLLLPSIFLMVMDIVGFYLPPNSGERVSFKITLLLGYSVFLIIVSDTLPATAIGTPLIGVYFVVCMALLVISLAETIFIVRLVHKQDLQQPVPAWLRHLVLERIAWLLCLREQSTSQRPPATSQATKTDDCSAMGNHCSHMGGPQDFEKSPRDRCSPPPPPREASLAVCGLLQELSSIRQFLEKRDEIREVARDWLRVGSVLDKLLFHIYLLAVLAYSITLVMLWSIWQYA

[3] = biological target: Myosin light chain kinase family member 4 (Homo sapiens) (UniProt Q86YV6); conditions: Compound concentration 1000.0 nM
[4] = biological target: Receptor tyrosine-protein kinase erbB-3 (Homo sapiens) (UniProt P21860); conditions: Compound concentration 1000.0 nM
[5] = biological target: Atypical kinase COQ8A, mitochondrial (Homo sapiens) (UniProt Q8NI60); conditions: Compound concentration 1000.0 nM
[6] = biological target: Mitogen-activated protein kinase 6 (Homo sapiens) (UniProt Q16659); conditions: Compound concentration 1000.0 nM
[7] = tested on: Leucine-rich repeat serine/threonine-protein kinase 2 (Homo sapiens), Q5S007 [G2019S]; conditions: Compound concentration 1000.0 nM
[8] = biological target: Interleukin-1 receptor-associated kinase 3 (Homo sapiens) (UniProt Q9Y616); conditions: Compound concentration 1000.0 nM
[9] = biological target: Macrophage colony-stimulating factor 1 receptor (Homo sapiens) (UniProt P07333); conditions: Compound concentration 1000.0 nM
[10] = biological target: Histamine H2 receptor (Homo sapiens) (UniProt P25021); conditions: Compound concentration 10.0 uM
[11] = biological target: Serine/threonine-protein kinase STK11 (Homo sapiens) (UniProt Q15831); conditions: Compound concentration 1000.0 nM
[12] = biological target: Receptor-type tyrosine-protein kinase FLT3 (Homo sapiens) (UniProt P36888); conditions: Compound concentration 1000.0 nM
[13] = biological target: Transient receptor potential cation channel subfamily M member 6 (Homo sapiens) (UniProt Q9BX84); conditions: Compound concentration 1000.0 nM
[14] = biological target: Ribosomal protein S6 kinase alpha-1 (Homo sapiens) (UniProt Q15418); conditions: Compound concentration 1000.0 nM
[15] = biological target: Serine/threonine-protein kinase SIK3 (Homo sapiens) (UniProt Q9Y2K2); conditions: Compound concentration 1000.0 nM
Serine/threonine-protein kinase SIK3 (Homo sapiens), sequence (Q9Y2K2 whole entry, looked up): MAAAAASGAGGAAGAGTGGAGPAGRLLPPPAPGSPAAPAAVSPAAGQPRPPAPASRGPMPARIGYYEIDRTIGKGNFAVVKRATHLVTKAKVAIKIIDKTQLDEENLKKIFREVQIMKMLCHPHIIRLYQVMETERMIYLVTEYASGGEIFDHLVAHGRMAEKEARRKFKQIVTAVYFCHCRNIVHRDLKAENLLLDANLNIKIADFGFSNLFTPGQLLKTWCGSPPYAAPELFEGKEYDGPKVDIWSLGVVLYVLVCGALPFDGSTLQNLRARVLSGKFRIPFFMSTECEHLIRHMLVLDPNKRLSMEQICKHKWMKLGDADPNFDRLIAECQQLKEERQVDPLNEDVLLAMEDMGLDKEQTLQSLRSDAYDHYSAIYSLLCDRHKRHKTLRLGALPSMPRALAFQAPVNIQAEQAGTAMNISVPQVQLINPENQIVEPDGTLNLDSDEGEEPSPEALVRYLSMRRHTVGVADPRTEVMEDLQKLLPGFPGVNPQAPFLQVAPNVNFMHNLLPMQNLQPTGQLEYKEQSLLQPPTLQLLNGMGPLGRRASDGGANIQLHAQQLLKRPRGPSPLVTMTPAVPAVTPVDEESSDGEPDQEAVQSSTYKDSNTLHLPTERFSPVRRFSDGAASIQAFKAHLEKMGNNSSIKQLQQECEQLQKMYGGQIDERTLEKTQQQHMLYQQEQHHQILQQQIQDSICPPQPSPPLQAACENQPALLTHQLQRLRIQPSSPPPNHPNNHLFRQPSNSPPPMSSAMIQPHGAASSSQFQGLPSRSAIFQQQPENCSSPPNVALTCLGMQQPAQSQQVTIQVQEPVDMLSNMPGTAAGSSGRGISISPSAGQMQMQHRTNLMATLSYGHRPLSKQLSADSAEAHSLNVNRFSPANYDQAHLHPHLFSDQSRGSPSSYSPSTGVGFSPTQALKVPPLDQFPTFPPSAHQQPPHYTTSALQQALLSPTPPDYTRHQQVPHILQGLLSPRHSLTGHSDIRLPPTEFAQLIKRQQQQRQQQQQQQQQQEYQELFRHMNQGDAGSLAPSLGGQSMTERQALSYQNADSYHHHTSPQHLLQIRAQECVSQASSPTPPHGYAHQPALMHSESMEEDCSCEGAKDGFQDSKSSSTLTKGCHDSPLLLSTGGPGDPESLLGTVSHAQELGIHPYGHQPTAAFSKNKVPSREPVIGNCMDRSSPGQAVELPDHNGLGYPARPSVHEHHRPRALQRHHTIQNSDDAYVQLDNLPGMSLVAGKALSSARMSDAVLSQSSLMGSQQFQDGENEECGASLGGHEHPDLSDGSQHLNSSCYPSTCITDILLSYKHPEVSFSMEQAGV

[16] = biological target: Histamine H4 receptor (Homo sapiens) (UniProt Q9H3N8); conditions: Compound concentration 10.0 uM
[17] = biological target: High affinity nerve growth factor receptor (Homo sapiens) (UniProt P04629); conditions: Compound concentration 1000.0 nM
High affinity nerve growth factor receptor (Homo sapiens), sequence (P04629 33-796 limits assumed): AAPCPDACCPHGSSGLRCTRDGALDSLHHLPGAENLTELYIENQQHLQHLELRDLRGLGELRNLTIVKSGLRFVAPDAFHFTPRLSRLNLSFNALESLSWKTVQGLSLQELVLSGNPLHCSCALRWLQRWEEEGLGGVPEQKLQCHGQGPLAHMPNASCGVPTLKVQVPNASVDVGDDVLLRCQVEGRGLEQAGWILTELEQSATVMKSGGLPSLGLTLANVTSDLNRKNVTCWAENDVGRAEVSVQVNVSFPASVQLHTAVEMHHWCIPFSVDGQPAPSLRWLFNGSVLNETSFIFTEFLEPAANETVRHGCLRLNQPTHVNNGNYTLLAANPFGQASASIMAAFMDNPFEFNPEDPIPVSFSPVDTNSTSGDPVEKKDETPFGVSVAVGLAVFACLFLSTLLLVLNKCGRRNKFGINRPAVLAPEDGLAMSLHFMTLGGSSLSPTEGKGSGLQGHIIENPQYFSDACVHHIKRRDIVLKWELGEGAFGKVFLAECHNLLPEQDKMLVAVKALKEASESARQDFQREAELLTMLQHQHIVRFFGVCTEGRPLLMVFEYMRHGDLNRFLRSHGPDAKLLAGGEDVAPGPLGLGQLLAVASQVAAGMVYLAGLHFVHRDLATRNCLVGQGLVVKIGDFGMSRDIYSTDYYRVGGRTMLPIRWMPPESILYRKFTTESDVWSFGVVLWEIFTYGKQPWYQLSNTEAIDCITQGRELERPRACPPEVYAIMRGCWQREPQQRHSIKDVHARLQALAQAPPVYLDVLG

[18] = tested on: Epidermal growth factor receptor (Homo sapiens), P00533 [G719S]; conditions: Compound concentration 1000.0 nM
[19] = biological target: Atypical kinase COQ8B, mitochondrial (Homo sapiens) (UniProt Q96D53); conditions: Compound concentration 1000.0 nM
Atypical kinase COQ8B, mitochondrial (Homo sapiens), sequence (Q96D53 whole entry): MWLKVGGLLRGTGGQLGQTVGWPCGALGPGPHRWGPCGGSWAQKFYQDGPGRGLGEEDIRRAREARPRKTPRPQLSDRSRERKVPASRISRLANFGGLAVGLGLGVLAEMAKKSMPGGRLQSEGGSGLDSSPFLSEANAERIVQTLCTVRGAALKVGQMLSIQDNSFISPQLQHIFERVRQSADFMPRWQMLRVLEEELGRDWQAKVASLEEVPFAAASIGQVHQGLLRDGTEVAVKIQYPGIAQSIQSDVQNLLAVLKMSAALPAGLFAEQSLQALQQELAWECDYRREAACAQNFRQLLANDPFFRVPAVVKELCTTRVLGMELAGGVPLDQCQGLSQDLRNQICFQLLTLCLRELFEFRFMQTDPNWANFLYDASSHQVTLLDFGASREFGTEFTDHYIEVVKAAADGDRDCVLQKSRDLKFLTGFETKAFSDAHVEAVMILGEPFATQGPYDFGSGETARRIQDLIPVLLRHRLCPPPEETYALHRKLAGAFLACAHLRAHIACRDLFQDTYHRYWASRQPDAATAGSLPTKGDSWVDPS

[20] = biological target: Serine/threonine-protein kinase PAK 4 (Homo sapiens) (UniProt O96013); conditions: Compound concentration 1000.0 nM
[21] = tested on: Epidermal growth factor receptor (Homo sapiens), P00533 [UNDEFINED MUTATION]; conditions: Compound concentration 1000.0 nM
[22] = tested on: Tyrosine-protein kinase ABL1 (Homo sapiens), P00519 [E255K]; conditions: Compound concentration 1000.0 nM
[23] = biological target: Homeodomain-interacting protein kinase 3 (Homo sapiens) (UniProt Q9H422); conditions: Compound concentration 1000.0 nM
[24] = biological target: Mast/stem cell growth factor receptor Kit (Homo sapiens) (UniProt P10721); conditions: Compound concentration 1000.0 nM
Mast/stem cell growth factor receptor Kit (Homo sapiens), sequence (P10721 whole entry): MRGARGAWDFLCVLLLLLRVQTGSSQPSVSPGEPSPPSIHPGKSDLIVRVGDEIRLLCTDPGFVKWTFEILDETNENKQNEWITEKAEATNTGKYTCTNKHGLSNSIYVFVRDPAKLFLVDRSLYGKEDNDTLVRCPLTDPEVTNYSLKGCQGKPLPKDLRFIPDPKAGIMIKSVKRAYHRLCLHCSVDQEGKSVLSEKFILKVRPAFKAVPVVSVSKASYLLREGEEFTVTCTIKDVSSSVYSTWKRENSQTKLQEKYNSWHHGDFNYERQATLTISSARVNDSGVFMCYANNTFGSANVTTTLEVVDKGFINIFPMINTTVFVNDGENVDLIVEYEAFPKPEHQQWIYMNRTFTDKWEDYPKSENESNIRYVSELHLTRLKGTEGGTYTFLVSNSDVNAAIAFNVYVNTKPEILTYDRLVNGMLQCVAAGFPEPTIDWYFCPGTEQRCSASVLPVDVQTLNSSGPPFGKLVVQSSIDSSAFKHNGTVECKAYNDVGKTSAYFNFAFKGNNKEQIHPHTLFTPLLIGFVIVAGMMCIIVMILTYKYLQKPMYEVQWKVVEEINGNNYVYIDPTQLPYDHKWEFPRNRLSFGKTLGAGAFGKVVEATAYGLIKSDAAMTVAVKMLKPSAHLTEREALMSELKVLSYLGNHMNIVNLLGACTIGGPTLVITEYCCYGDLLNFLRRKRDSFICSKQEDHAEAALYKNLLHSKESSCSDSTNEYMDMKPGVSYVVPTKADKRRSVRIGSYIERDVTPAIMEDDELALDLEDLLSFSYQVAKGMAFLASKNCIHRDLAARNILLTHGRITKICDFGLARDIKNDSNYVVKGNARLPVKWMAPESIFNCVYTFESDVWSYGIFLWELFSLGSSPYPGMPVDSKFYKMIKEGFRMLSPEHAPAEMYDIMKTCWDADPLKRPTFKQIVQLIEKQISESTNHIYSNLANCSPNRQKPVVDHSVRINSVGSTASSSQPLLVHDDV

[25] = biological target: Serine/threonine-protein kinase haspin (Homo sapiens) (UniProt Q8TF76); conditions: Compound concentration 1000.0 nM
[26] = biological target: Dual specificity mitogen-activated protein kinase kinase 3 (Homo sapiens) (UniProt P46734); conditions: Compound concentration 1000.0 nM
[27] = biological target: BDNF/NT-3 growth factors receptor (Homo sapiens) (UniProt Q16620); conditions: Compound concentration 1000.0 nM
[28] = tested on: Receptor-type tyrosine-protein kinase FLT3 (Homo sapiens), P36888 [R834Q]; conditions: Compound concentration 1000.0 nM
[29] = biological target: Mitogen-activated protein kinase kinase kinase 13 (Homo sapiens) (UniProt O43283); conditions: Compound concentration 1000.0 nM
[30] = biological target: Fibroblast growth factor receptor 4 (Homo sapiens) (UniProt P22455); conditions: Compound concentration 1000.0 nM
[31] = biological target: Serine/threonine-protein kinase 38 (Homo sapiens) (UniProt Q15208); conditions: Compound concentration 1000.0 nM
Serine/threonine-protein kinase 38 (Homo sapiens), sequence (Q15208 2-465 limits assumed): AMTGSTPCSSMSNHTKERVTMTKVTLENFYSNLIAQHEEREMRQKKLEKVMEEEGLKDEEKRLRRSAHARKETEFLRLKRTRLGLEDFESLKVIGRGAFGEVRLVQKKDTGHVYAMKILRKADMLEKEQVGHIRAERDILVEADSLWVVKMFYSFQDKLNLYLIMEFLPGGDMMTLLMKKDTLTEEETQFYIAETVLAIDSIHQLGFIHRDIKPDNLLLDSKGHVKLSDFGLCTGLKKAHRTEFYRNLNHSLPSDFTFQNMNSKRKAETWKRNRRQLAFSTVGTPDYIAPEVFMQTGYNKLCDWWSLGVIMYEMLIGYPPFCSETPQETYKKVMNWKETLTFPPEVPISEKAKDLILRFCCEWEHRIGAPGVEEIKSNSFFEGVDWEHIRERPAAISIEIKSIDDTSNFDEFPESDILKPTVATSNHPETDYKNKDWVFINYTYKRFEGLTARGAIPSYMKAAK

[32] = biological target: Tyrosine-protein kinase FRK (Homo sapiens) (UniProt P42685); conditions: Compound concentration 1000.0 nM
[33] = biological target: 5-hydroxytryptamine receptor 1E (Homo sapiens) (UniProt P28566); conditions: Compound concentration 10.0 uM
[34] = biological target: Serine/threonine-protein kinase mTOR (Homo sapiens) (UniProt P42345); conditions: Compound concentration 1000.0 nM
[35] = biological target: Tyrosine-protein kinase ABL2 (Homo sapiens) (UniProt P42684); conditions: Compound concentration 1000.0 nM
[36] = biological target: Hormonally up-regulated neu tumor-associated kinase (Homo sapiens) (UniProt P57058); conditions: Compound concentration 1000.0 nM
Hormonally up-regulated neu tumor-associated kinase (Homo sapiens), sequence (P57058 whole entry): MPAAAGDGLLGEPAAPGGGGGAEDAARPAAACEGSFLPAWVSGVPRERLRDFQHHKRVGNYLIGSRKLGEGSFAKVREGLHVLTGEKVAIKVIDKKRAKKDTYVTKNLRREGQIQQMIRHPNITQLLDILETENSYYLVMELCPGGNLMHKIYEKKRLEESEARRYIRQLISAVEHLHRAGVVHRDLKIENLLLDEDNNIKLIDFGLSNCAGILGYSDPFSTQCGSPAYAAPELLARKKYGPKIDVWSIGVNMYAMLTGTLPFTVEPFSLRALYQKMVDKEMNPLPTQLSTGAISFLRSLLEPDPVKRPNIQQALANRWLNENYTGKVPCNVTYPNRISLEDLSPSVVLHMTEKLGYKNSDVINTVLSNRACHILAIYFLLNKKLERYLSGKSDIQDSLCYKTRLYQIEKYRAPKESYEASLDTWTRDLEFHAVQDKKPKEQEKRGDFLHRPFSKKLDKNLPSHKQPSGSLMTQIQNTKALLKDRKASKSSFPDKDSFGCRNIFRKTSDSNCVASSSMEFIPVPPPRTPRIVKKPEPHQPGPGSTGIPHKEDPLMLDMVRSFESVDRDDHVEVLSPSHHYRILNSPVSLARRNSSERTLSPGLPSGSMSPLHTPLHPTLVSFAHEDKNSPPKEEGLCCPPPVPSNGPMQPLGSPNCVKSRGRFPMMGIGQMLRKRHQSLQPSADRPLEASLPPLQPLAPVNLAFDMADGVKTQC

[37] = biological target: Eukaryotic translation initiation factor 2-alpha kinase 1 (Homo sapiens) (UniProt Q9BQI3); conditions: Compound concentration 1000.0 nM
[38] = biological target: Fibroblast growth factor receptor 3 (Homo sapiens) (UniProt P22607); conditions: Compound concentration 1000.0 nM

Question: Which results are given for O=C(NCc1ncc(C(F)(F)F)cc1Cl)c1ccc2c(c1)C1(CCS(=O)(=O)CC1)[C@H](C1CC1)N2S(=O)(=O)c1ccc(F)cc1 [BAY-784]?
Answer: residual activity [1]: 85%; inhibition [2]: 1.44%; residual activity [3]: 100%; residual activity [4]: 100%; residual activity [5]: 96%; residual activity [6]: 87%; residual activity [7]: 100%; residual activity [8]: 99%; residual activity [9]: 100%; inhibition [10]: 14.6%; residual activity [11]: 100%; residual activity [12]: 100%; residual activity [13]: 81%; residual activity [14]: 99%; residual activity [15]: 100%; inhibition [16]: -9.53%; residual activity [17]: 80%; residual activity [18]: 92%; residual activity [19]: 83%; residual activity [20]: 100%; residual activity [21]: 100%; residual activity [22]: 80%; residual activity [23]: 82%; residual activity [24]: 100%; residual activity [25]: 87%; residual activity [26]: 71%; residual activity [27]: 60%; residual activity [28]: 90%; residual activity [29]: 0%; residual activity [30]: 100%; residual activity [31]: 92%; residual activity [32]: 100%; inhibition [33]: 10.4%; residual activity [34]: 100%; residual activity [35]: 100%; residual activity [36]: 84%; residual activity [37]: 86%; residual activity [38]: 100%

Question: Which residual activity [1] does the source give for O=C(NCc1ncc(C(F)(F)F)cc1Cl)c1ccc2c(c1)C1(CCS(=O)(=O)CC1)[C@@H](C1CC1)N2S(=O)(=O)c1ccc(F)cc1 [BAY-786] here?
Answer: 84%

Question: And the inhibition [2]?
Answer: -1.68%

Question: And the residual activity [3]?
Answer: 95%

Question: And the residual activity [4]?
Answer: 100%

Question: What about the residual activity [5] of the same molecule?
Answer: 90%

Question: What about the residual activity [6] of the same molecule?
Answer: 86%

Question: What about the residual activity [7] of the same molecule?
Answer: 100%

Question: What about the residual activity [8] of the same molecule?
Answer: 100%

Question: And the residual activity [9]?
Answer: 74%

Question: And the inhibition [10]?
Answer: 16.5%

Question: And the residual activity [11]?
Answer: 100%

Question: What about the residual activity [12] of the same molecule?
Answer: 100%

Question: And the residual activity [13]?
Answer: 92%

Question: And the residual activity [14]?
Answer: 100%

Question: What about the residual activity [15] of the same molecule?
Answer: 72%

Question: And the inhibition [16]?
Answer: -6.68%

Question: What about the residual activity [17] of the same molecule?
Answer: 75%

Question: What about the residual activity [18] of the same molecule?
Answer: 86%

Question: What about the residual activity [19] of the same molecule?
Answer: 85%

Question: And the residual activity [20]?
Answer: 89%

Question: What about the residual activity [21] of the same molecule?
Answer: 87%

Question: What about the residual activity [22] of the same molecule?
Answer: 100%

Question: What about the residual activity [23] of the same molecule?
Answer: 81%

Question: And the residual activity [24]?
Answer: 82%

Question: And the residual activity [25]?
Answer: 77%

Question: What about the residual activity [26] of the same molecule?
Answer: 73%

Question: And the residual activity [27]?
Answer: 71%

Question: What about the residual activity [28] of the same molecule?
Answer: 84%

Question: And the residual activity [29]?
Answer: 0%

Question: And the residual activity [30]?
Answer: 100%

Question: And the residual activity [31]?
Answer: 84%

Question: And the residual activity [32]?
Answer: 99%

Question: What about the inhibition [33] of the same molecule?
Answer: -1.55%

Question: And the residual activity [34]?
Answer: 92%

Question: What about the residual activity [35] of the same molecule?
Answer: 100%

Question: And the residual activity [36]?
Answer: 85%

Question: And the residual activity [37]?
Answer: 94%

Question: And the residual activity [38]?
Answer: 100%
